Patent publication US9689040B2, “Selective inhibitors of tumor-initiating cells” (Children's Medical Center Corporation, priority 2011, dated 2017)
Read-outs that look alike come from different tables or passages of the source.

What was measured:
BPLER cells [1] = assay: Cell viability after drug treatment (CellTiterGlo / Trypan-Blue); format: cell-based, human; settings: increasing doses, 24 hr
BPLER cells [2] = assay: qRT-PCR of TGS transcripts after TSA treatment; format: cell-based, human; settings: 1 μM TSA, 24 hr
Protocol: (§1) The CMAP data predicted that TSA would suppress expression of 52 TGS transcripts by ≧1.8-fold (Table 6). We measured the change in expression of the top 11 of these transcripts in BPLER and HMLER cells treated with TSA.
(§2) qRT-PCR analysis was performed as described^41. Briefly, total RNA was extracted with TRIZOL (Invitrogen) and cDNA prepared from 600-900 ng total RNA using TH[…] kit (Invitrogen) as per the manufacturer's instructions. 2.5 ul of diluted cDNA (1:20) was used as template for qPCR using POWER SYBR-GREEN MASTER MIX (Applied Biosystems) and BIORAD C1000 THERMAL CYCLER (Biorad). Primer sequences are available upon request. Relative CT values were normalized to […]-actin and converted to a linear scale using the −ΔCT method.

HMLER cells = assay: qRT-PCR of TGS transcripts after TSA treatment; format: cell-based, human; settings: 1 μM TSA, 24 hr
Protocol: as §1, §2

TGS transcripts = settings: Instance ID 6709, cited from earlier work

CC(/C=C/C(=O)NO)=C\[C@@H](C)C(=O)c1ccc(N(C)C)cc1 [TSA, Trichostatin A]
sensitivity of BPLER relative to HMLER cells (viability) (BPLER cells [1]): selectively lethal for BPLER compared to HMLER | expression of the top 11 predicted TGS transcripts (BPLER cells [2]): significantly decreased | expression of the top 11 predicted TGS transcripts (HMLER cells): All but two of these also had significantly reduced expression | BPE viability (BPE cells; at the indicated dose): no effect on BPE viability | combination with bortezomib: cytotoxicity in untransformed BPE cells (BPE cells; in vitro): not cytotoxic | Amplitude (TGS transcripts; BUB1, probe set 215509_s_at): −0.84 | Amplitude (TGS transcripts; C7orf25 /// PSMA2, probe set 221573_at): −0.7 | Amplitude (TGS transcripts; C12orf10, probe set 218220_at): −0.5 | Amplitude (TGS transcripts; C19orf29, probe set 215954_s_at): −0.49 | Amplitude (TGS transcripts; CANX, probe set 208852_s_at): −0.55 | Amplitude (TGS transcripts; CANX, probe set 208853_s_at): −0.81 | Amplitude (TGS transcripts; CCNA2, probe set 203418_at): −0.83 | Amplitude (TGS transcripts; CCNA2, probe set 213226_at): −0.63 | Amplitude (TGS transcripts; CDC5L, probe set 209055_s_at): −1.19 | Amplitude (TGS transcripts; CDK13, probe set 207318_s_at): −0.87 | Amplitude (TGS transcripts; CDK13, probe set 207319_s_at): −0.79 | Amplitude (TGS transcripts; CDK17, probe set 206474_at): −0.74 | Amplitude (TGS transcripts; CDK17, probe set 221918_at): −0.66 | Amplitude (TGS transcripts; DDX19A /// DDX19B, probe set 202576_s_at): −0.73 | Amplitude (TGS transcripts; DHX8, probe set 203334_at): −0.45 | Amplitude (TGS transcripts; DNAJC11, probe set 215792_s_at): −0.47 | Amplitude (TGS transcripts; DYSF, probe set 218660_at): −0.43 | Amplitude (TGS transcripts; FYCO1, probe set 218204_s_at): −0.5 | Amplitude (TGS transcripts; GAPDH, probe set AFFX-HUMGAPDH/M33197_5_at): −1.17 | Amplitude (TGS transcripts; GAPDH, probe set AFFX-HUMGAPDH/M33197_M_at): −0.62 | Amplitude (TGS transcripts; HIPK3, probe set 210148_at): −0.46 | Amplitude (TGS transcripts; LSM2, probe set 209449_at): −0.44 | Amplitude (TGS transcripts; MCL1, probe set 200796_s_at): −1.46 | Amplitude (TGS transcripts; MFSD5, probe set 212861_at): −0.77 | Amplitude (TGS transcripts; MGAT2, probe set 203101_s_at): −0.67 | Amplitude (TGS transcripts; MTA2, probe set 203444_s_at): −0.74 | Amplitude (TGS transcripts; NAA38, probe set 219119_at): −0.47 | Amplitude (TGS transcripts; NDC80, probe set 204162_at): −1.07 | Amplitude (TGS transcripts; NME3, probe set 204862_s_at): −0.6 | Amplitude (TGS transcripts; NUP205, probe set 212247_at): −0.65 | Amplitude (TGS transcripts; PDCD4, probe set 202731_at): −1.07 | Amplitude (TGS transcripts; PFKL, probe set 201102_s_at): −0.67 | Amplitude (TGS transcripts; POLR2F, probe set 209511_at): −0.43 | Amplitude (TGS transcripts; PRC1, probe set 218009_s_at): −0.67 | Amplitude (TGS transcripts; PSMA1, probe set 201676_x_at): −0.4 | Amplitude (TGS transcripts; PSMA1, probe set 210759_s_at): −0.74 | Amplitude (TGS transcripts; PSMA1, probe set 211746_x_at): −0.45 | Amplitude (TGS transcripts; PSMA2, probe set 201317_s_at): −0.41 | Amplitude (TGS transcripts; PSMA3, probe set 201532_at): −0.63 | Amplitude (TGS transcripts; PSMB4, probe set 202243_s_at): −0.43 | Amplitude (TGS transcripts; PSMC1, probe set 204219_s_at): −0.53 | Amplitude (TGS transcripts; PSMC3, probe set 201267_s_at): −1.66 | Amplitude (TGS transcripts; PSMD7, probe set 201705_at): −1.01 | Amplitude (TGS transcripts; RAN, probe set 200750_s_at): −0.48 | Amplitude (TGS transcripts; RBM22, probe set 218134_s_at): −0.75 | Amplitude (TGS transcripts; RBMX, probe set 213762_x_at): −0.58 | Amplitude (TGS transcripts; SCD, probe set 211162_x_at): −0.92 | Amplitude (TGS transcripts; SCD, probe set 211708_s_at): −0.83 | Amplitude (TGS transcripts; SH3GL3, probe set 211565_at): −0.64 | Amplitude (TGS transcripts; SNW1, probe set 215424_s_at): −1.16 | Amplitude (TGS transcripts; TMED3, probe set 208837_at): −0.42 | Amplitude (TGS transcripts; TMEM14B, probe set 221452_s_at): −0.48 | Amplitude (TGS transcripts; TNPO1, probe set 207657_x_at): −0.42 | Amplitude (TGS transcripts; TNPO1, probe set 209226_s_at): −0.68 | Amplitude (TGS transcripts; USP39, probe set 217829_s_at): −0.56 | Amplitude (TGS transcripts; probe set 200749_at (gene symbol —)): −0.5
